The record followed here is patent US20090131370A1, “Novel Nucleoside Derivatives” (METABASIS THERAPEUTICS , INC., priority 2004, published 2009).

Data set [1] can be described thus: Oral bioavailability in the rat based on liver nucleotide concentrations. As to the method:
At pre-specified times of 20 min, 1, 3, 5, 8, 16, and 24 hrs post dose, liver samples (˜1 g) were collected by freeze-clamping and homogenized in 3 volumes of ice-cold 60% acetonitrile. Following centrifugation to clarify the homogenate, aliquots of the supernatants (100 μL) were evaporated to dryness on a Savant Speed-Vac Plus (1 hr, room temperature). The resulting dried residue was reconstituted with 100 μL of mobile phase and then analyzed for nucleotides by an LC-MS/MS method as described below.
The reconstituted extracts in mobile phase A (20 mM N,N-dimethylhexylamine and 10 mM propionic acid in 20% methanol) were analyzed by LC-MS/MS (Applied Biosystems, API 4000) equipped with an Agilent 1100 binary pump and a LEAP injector. […] Where possible, the quantitative analysis of liver NMP, NDP, and NTP were calculated based on a calibration curve generated from their respective standards (0.01-30 μM).
The area under the curve (AUC) to the last measurable time point were calculated by trapezoidal summation of the liver concentration-time profile of total nucleotides and NTP. The OBAV was determined by dividing the dose-normalized AUC following oral administration by the AUC following IV dosing.

Data set [2] can be described thus: Susceptibility to non-productive metabolism (deamination) in vitro in rat whole blood or plasma. The format is in vitro ADME. On the procedure: The susceptibility of 2′-β-C-methyladenosine, and its 2′,3′-carbonate prodrugs to non-productive metabolism was evaluated in vitro and in vivo. […] Aliquots of the blood and plasma samples were removed periodically and extracted with perchloric acid and methanol, respectively, and then centrifuged. The acidic supernatants were neutralized with potassium carbonate and recentrifuged. […] Analysis (50 μL) was performed on an Agilent Zorbax SB-Aq column (4.6×150 mm) eluted with a gradient consisting of a mixture of Buffer A (20 mM potassium phosphate pH 6.2) and Buffer B (acetonitrile) (0-10 min, 0-10%; 10-20 min, 10-80%, 20-21 min, 80-0%; 21-30 min, 0-0%) and UV absorbance monitoring at 265 nm. The flow rate was 1.5 mL/min and the column temperature was set at 40° C. Concentrations of metabolite were determined from calibration curves prepared by spiking known amounts of standards to plasma and processing as before.

For data set [3] the following is noted: rat, in vivo. On the procedure:
Analog and Its 2′,3′-Carbonate Prodrugs The liver selectivity of an antiviral nucleoside, 2′-B-C-methyladenosine, and its 2′,3′-carbonate prodrugs was evaluated in the rat by comparing liver nucleotide concentrations to levels of a major metabolite in the plasma or to concentrations of extrahepatic nucleotides. An elevated liver selectivity index is an indication of improved liver targeting of the antiviral agent and reduced exposure to other organs that may be potential targets of toxicity.
At pre-specified times of 20 min, 1, 3, 5, 8, 16, and 24 hrs post dose, liver, heart, and thigh muscle samples (˜1 g) were harvested by freeze-clamping and homogenized in 3 volumes of ice-cold acetonitrile. Following centrifugation to clarify the homogenate, aliquots of the tissue extracts were evaporated to dryness on a Savant Speed-Vac Plus (1 hr, room temperature). The resulting dried residue was reconstituted with 100 μL of mobile phase and then analyzed for nucleotides by an LC-MS/MS method as described in Example I. In addition to solid tissue, blood was collected in heparin tubes at the pre-specified times and centrifuged to obtain plasma. The plasma samples (100 μL) were extracted with 1.5 volumes of methanol and centrifuged for 20 min at top speed on a microfuge. Plasma concentrations of a major metabolite of 2′-B-C-methyladenosine, i.e., 2′-B-C-methylinosine, were determined by LC-UV as described in Example E.
The area under the curve (AUC) to the last measurable time point was calculated by trapezoidal summation of the liver, heart, and muscle concentration-time profile of total nucleotides and NTP and of the plasma concentration-time profile of the major metabolite 2′-B-C-methylinosine. The liver selectivity index was determined by two methods: (1) dividing liver NTP AUC by heart nucleotide AUC and (2) dividing liver NTP AUC by plasma 2′-3-C-methylinosine AUC.

For a further data set, the system named is HCV. Briefly: Antiviral activity in HCV-infected human liver slice assay. The format is cell-based, hepatitis C virus. The following applies: HCV RNA in culture media. As to the method: The effect of various compounds on HCV replication in human liver tissue was evaluated as described below.
Liver from a brain-dead HCV antibody-positive human patient was perfused with ice-cold Viaspan (Dupont Pharmaceutical) preservation solution and received on ice in Viaspan.
Precision-cut liver slices of ˜200-250 μm thickness and […] diameter were prepared and cultured in Waymouth's cell culture medium (Gibco, Inc.) that was supplemented with 10% fetal bovine serum and 10 mL/L Fungi-Bact at 37° C., and gassed with carbogen (95% O2, 5% CO2) at 0.75 liters/min. Tissue slices were maintained in culture for 72 h. Cell culture medium containing test compound in solution was changed on a daily basis.
At appropriate times of liver slice incubation, liver slices and medium were collected for analysis of HCV RNA (tissue and medium) and nucleotide levels (NTP). All collected media and tissue slices were maintained in liquid N2 until analysis.
Medium and tissue samples were analyzed for HCV RNA levels according to published procedures (Bonacini et. al., 1999) which utilize an automated, multicycle, polymerase chain reaction (PCR)-based technique. This assay has a lower limit of detection for HCV RNA of 100 viral copies/ml. Frozen liver slices were disrupted by using a combination of ultrasound probe sonication, Branson Sonifier 450 (Branson Ultrasonics, Danbury, Conn.) and homogenization using a Dounce conical pestle in 200 μls of 10% (v/v) perchloric acid (PCA). After a 5 min centrifugation at 2,500×g, the supernatants were neutralized using 3 M KOH/3 M KHCO3 and mixed thoroughly. The neutralized samples were centrifuged at 2,500 g for 5 min and NTP levels were determined by ion exchange phase HPLC (Hewlett Packard 1050) using a Whatman Partisil 5 SAX (5 μm, 4.6×250 mm) column. Samples (50 μL) were injected onto the column in 70% 10 mM ammonium phosphate buffer and 30% 1 M ammonium phosphate buffer, both at pH 3.5 and containing 6% ethanol. Nucleoside triphosphates were eluted from the column using a linear gradient to 80% 1 M ammonium phosphate pH 3.5/6% ethanol buffer, at a flow rate of 1.25 mL/min and detected by UV absorbance (254 nm).

The nature of data set [4]: Susceptibility to non-productive metabolism in vivo: 2′-β-C-methylinosine AUC in rat plasma and tissues. The arrangement: species or system male Sprague-Dawley rats. The following applies: male, Sprague-Dawley. On the procedure: The susceptibility of 2′-β-C-methyladenosine, and its 2′,3′-carbonate prodrugs to non-productive metabolism was evaluated in vitro and in vivo. […] Also at the pre-specified times, blood (heparinized) was collected from the vena cava and centrifuged briefly to obtain plasma. […] The supernatant was then analysis for deaminated products and other metabolites by LC-UV as described above.

Data set [5] in a line: Kinetics of conversion of HepDirect-carbonate prodrugs to nucleoside monophosphates by human liver microsomes. As to conditions: activation to NMP, Lineweaver-Burke plot. The format is in vitro ADME. On the procedure:
The kinetics of activation of prodrug analogues to NMP were evaluated in the microsomal fraction of human liver.
Human liver microsomes were purchased from In Vitro Technologies. The study was performed at 2 mg/mL human liver microsomes, 100 mM KH2PO4, 10 mM glutathione, 0-250 μM compound, and 2 mM NADPH for 0-7.5 min. in an Eppendorf Thermomixer 5436 (37° C., 850 rpm). The reactions were initiated by addition of NADPH following a 2-min. preincubation. Reactions were quenched with 60% methanol at 0, 2.5, 5, and 7.5 min. The resulting extracts were clarified by centrifugation at 14,000 rpm in an Eppendorf microfuge (20 min.). The supernatants (200 μL) were evaporated under vacuum and, heat to dryness. The dried residue was reconstituted with 200 μL of water and the mixture was centrifuged for 10 min at 14,000 rpm. […] NMP was detected by using MS/MS mode (M^−/78.8) and quantified based on comparison to a standard of lamivudine monophosphate. Kinetic parameters were determined from a Lineweaver-Burke plot of the data with use of SigmaPlot 9.0 software.

Read-outs that look alike come from different tables or passages of the source. Bounds are passed on as bounds.

Regarding “2′-β-C-methyladenosine [reference compound]”, the “ORAL BIOAVAILABILITY” value is below 5% in data set [1] (dose-normalized liver nucleotide AUC oral / IV) and 2% in data set [1] (dose-normalized liver nucleotide AUC oral / IV, listed as 2′-β-C-Methyladenosine). Moreover, the “deaminated product (2′-β-C-methylinosine) after incubation in rat whole blood in vitro” value (“deaminated product … in vitro” below) in data set [2] (rat whole blood, 37° C.) is given as 2′-β-C-methylinosine was observed. Also, in data set [3], the “Liver NTP AUC” value was 15. Further, in data set [3], the “Plasma 2′-β-C-Methylinosine AUC” value is 11. Also, the “Plasma concentrations of the main metabolite, 2′-B-C-methylinosine” value in data set [3] is recorded as “detectable”. In addition, in data set [3], the “concentrations of nucleotides of 2′-methyladenosine in heart and muscle tissue” value was “measurable in heart and muscle tissue”. The “% decrease in viral RNA relative to untreated liver slices” value in the data set on HCV (0.25 μM) stood at 0%; in the data set on HCV (2.5 μM), 83%; in the data set on HCV (25 μM) it was 94%; in the data set on HCV (100 μM), 92%.
Consider `C[C@@]12OC(=O)O[C@@H]1[C@@H](COP1(=O)OCC[C@@H](c3ccncc3)O1)O[C@H]2n1cnc2c(N)ncnc21` (some centres unmarked) [Compound 30.1], for which the “deaminated product 2′-B-C-methylinosine in plasma, liver, heart, and muscle tissue” value in data set [4] is reported as “no or only trace levels of the deaminated product were measurable”. In addition, the “deaminated product … in vitro” value in data set [2] (rat) is listed as “no deaminated products were detected”. Also, in data set [3] (male, Sprague-Dawley), the “Heart Nucleotides AUC” value was 2.6, the “Liver NTP AUC” value stood at 841 and the “Plasma 2′-β-C-Methylinosine AUC” value was below 7.1. Further, in data set [5], the Km stood at 64 µM and the Vmax worked out at 0.36 nmol/min/mg.
For the compound `CC1(C)C[C@@H](c2cccc(F)c2F)OP(=O)(OC[C@H]2O[C@@H](n3cnc4c(N)ncnc43)[C@]3(C)OC(=O)O[C@H]23)O1` (stereo partly drawn) [Compound 30.10, cis-5′-O-[6-(2,3-Difluorophenyl)-4,4-dimethyl-2-oxo-1,3,2-dioxaphosphorinan-2-y]-2′,3′-carbonyl-2′-C-methyl-adenosine], the “deaminated product 2′-B-C-methylinosine in plasma, liver, heart, and muscle tissue” value in data set [4] is reported as “no or only trace levels of the deaminated product were measurable”. In addition, the “ORAL BIOAVAILABILITY” value in data set [1] (male, Sprague-Dawley, in vivo) is 21%. The “deaminated product … in vitro” value in data set [2] (rat) is “no deaminated products were detected”. Besides, in data set [3] (male, Sprague-Dawley), the “Heart Nucleotides AUC” value is on record as below 2.8 and the “Plasma 2′-β-C-Methylinosine AUC” value was below 7.1. Besides, in data set [5], the Km stood at 44.5 µM and the Vmax worked out at 0.12 nmol/min/mg.
Consider `C[C@@]1(O)[C@H](O)[C@@H](COP2(=O)OCC[C@H](c3cccc(Cl)c3)O2)O[C@H]1n1ccc2c(N)ncnc21` (stereo partly drawn) [Example 16.1, 4-Amino-7-(cis-5′-O-[4-(3-chlorophenyl)-2-oxo-1,3,2-dioxaphosphorinan-2-yl]-2′-C-methyl-beta-D-ribofuranosyl)-7H-pyrrolo[2,3-d]pyrimidine], for which the melting point lay within 138 to 141 °C.
